Results: patent publication US7138361B2, “Herbicidal heterocycles” (E. I. du Pont de Nemours and Company, priority 2000, dated 2006)

Assays:
Assay in all cases: Test C postemergence
Format in all cases: in vivo
[1] = test system: cocklebur (Xanthium strumarium)
Summary of the method: (§1)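 Visual 0–100 rating vs controls (0 = no effect, 100 = complete control) at 12–14 d, greenhouse. Compounds in non-phytotoxic solvent + surfactant; pre: sprayed after seeding; post: 1–4-leaf plants, 2–18 cm.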

[2] = test system: velvetleaf (Abutilon theophrasti)
Summary of the method: as §1

[3] = test system: woolly cupgrass (Eriochloa villosa)
Summary of the method: as §1

[4] = test system: goosegrass (Eleusine indica)
Summary of the method: as §1

[5] = test system: kochia (Kochia scoparia)
Summary of the method: as §1

[6] = test system: yellow nutsedge (Cyperus esculentus)
Summary of the method: as §1

[7] = test system: johnsongrass (Sorghum halepense)
Summary of the method: as §1

[8] = test system: soybean (Glycine max)
Summary of the method: as §1

[9] = test system: crabgrass (Digitaria sanguinalis)
Summary of the method: as §1

[10] = test system: chickweed (Stellaria media)
Summary of the method: as §1

[11] = Rate 125 g/ha, scale 0 to 100, 0 no effect, 100 complete control
[12] = Rate 250 g/ha, scale 0 to 100 (0 no effect, 100 complete control)
[13] = Rate 500 g/ha, scale 0 to 100 (0 no effect, 100 complete control)
[14] = Rate 62 g/ha, scale 0 to 100, 0 no effect, 100 complete control

Row | Structure (SMILES) | Plant response rating, Cocklebur [1, 11] | Plant response rating, Cocklebur [1, 12] | Plant response rating, Velvetleaf [2, 11] | Plant response rating, Velvetleaf [2, 12] | Plant response rating, Cupgrass, Woolly [3, 11] | Plant response rating, Cupgrass, Woolly [3, 12] | Plant response rating, Goosegrass [4, 11] | Plant response rating, Goosegrass [4, 12] | Plant response rating, Kochia [5, 11] | Plant response rating, Kochia [5, 12] | Plant response rating, Nutsedge [6, 11] | Plant response rating, Nutsedge [6, 12] | Plant response rating, Johnsongrass [7, 11] | Plant response rating, Johnsongrass [7, 12] | Plant response rating, Soybean [8, 11] | Plant response rating, Soybean [8, 12] | Plant response rating, Crabgrass [9, 11] | Plant response rating, Crabgrass [9, 12] | Plant response rating, Chickweed [10, 11] | Plant response rating, Chickweed [10, 12] | other results
1 | O=C1C(n2ccc(C3CCC3)n2)SCN1c1cccc(OC(F)(F)F)c1 (stereo not drawn) [Compound 38] | 0 | 0 | 0 | 0 | 0 | 0 | 0 | 0 | 60 | 70 | 0 | 0 | 0 | 0 | 0 | 0 | 0 | 0 | 0 | 0 | Plant response rating, Cocklebur ([1]; Rate 62 g/ha, scale 0 to 100): 0; Plant response rating, Cocklebur [1, 13]: 20; Plant response rating, Velvetleaf ([2]; Rate 62 g/ha, scale 0 to 100): 0; Plant response rating, Velvetleaf [2, 13]: 0; Plant response rating, Cupgrass, Woolly ([3]; Rate 62 g/ha, scale 0 to 100): 0; Plant response rating, Cupgrass, Woolly [3, 13]: 0; Plant response rating, Goosegrass ([4]; Rate 62 g/ha, scale 0 to 100): 0; Plant response rating, Goosegrass [4, 13]: 0; Plant response rating, Kochia ([5]; Rate 62 g/ha, scale 0 to 100): 60; Plant response rating, Kochia [5, 13]: 70; Plant response rating, Nutsedge ([6]; Rate 62 g/ha, scale 0 to 100): 0; Plant response rating, Nutsedge [6, 13]: 0; Plant response rating, Johnsongrass ([7]; Rate 62 g/ha, scale 0 to 100): 0; Plant response rating, Johnsongrass [7, 13]: 30; Plant response rating, Soybean ([8]; Rate 62 g/ha, scale 0 to 100): 0; Plant response rating, Soybean [8, 13]: 0; Plant response rating, Crabgrass ([9]; Rate 62 g/ha, scale 0 to 100): 0; Plant response rating, Crabgrass [9, 13]: 30; Plant response rating, Chickweed ([10]; Rate 62 g/ha, scale 0 to 100): 0; Plant response rating, Chickweed [10, 13]: 0
2 | CCC(C)c1ccn(C2CCN(c3ccc(C)c(OC)c3)C2=O)n1 (stereo not drawn) [Compound 80] | 30 | 30 | 20 | 20 | 0 | 0 | 0 | 0 | 0 | 30 | 20 | 20 | 0 | 0 | 60 | 70 | 0 | 0 | 20 | 30 | Plant response rating, Cocklebur ([1]; Rate 62 g/ha, scale 0 to 100): 20; Plant response rating, Cocklebur [1, 13]: 40; Plant response rating, Velvetleaf ([2]; Rate 62 g/ha, scale 0 to 100): 20; Plant response rating, Velvetleaf [2, 13]: 20; Plant response rating, Cupgrass, Woolly ([3]; Rate 62 g/ha, scale 0 to 100): 0; Plant response rating, Cupgrass, Woolly [3, 13]: 0; Plant response rating, Goosegrass ([4]; Rate 62 g/ha, scale 0 to 100): 0; Plant response rating, Goosegrass [4, 13]: 0; Plant response rating, Kochia ([5]; Rate 62 g/ha, scale 0 to 100): 0; Plant response rating, Kochia [5, 13]: 50; Plant response rating, Nutsedge ([6]; Rate 62 g/ha, scale 0 to 100): 0; Plant response rating, Nutsedge [6, 13]: 20; Plant response rating, Johnsongrass ([7]; Rate 62 g/ha, scale 0 to 100): 0; Plant response rating, Johnsongrass [7, 13]: 0; Plant response rating, Soybean ([8]; Rate 62 g/ha, scale 0 to 100): 50; Plant response rating, Soybean [8, 13]: 90; Plant response rating, Crabgrass ([9]; Rate 62 g/ha, scale 0 to 100): 0; Plant response rating, Crabgrass [9, 13]: 30; Plant response rating, Chickweed ([10]; Rate 62 g/ha, scale 0 to 100): 20; Plant response rating, Chickweed [10, 13]: 60
3 | CC(C)(C)c1ccn(C2SCN(c3cccc(OC(F)F)c3)C2=O)n1 (stereo not drawn) [Compound 36] | 0 | 0 | 0 | 30 | 0 | 0 | 0 | 0 | 70 | 80 | 0 | 30 | 0 | 0 | 0 | 0 | 0 | 30 | 0 | 50 | Plant response rating, Cocklebur ([1]; Rate 31 g/ha, scale 0 to 100): 0; Plant response rating, Velvetleaf ([2]; Rate 31 g/ha, scale 0 to 100): 0; Plant response rating, Cupgrass, Woolly ([3]; Rate 31 g/ha, scale 0 to 100): 0; Plant response rating, Goosegrass ([4]; Rate 31 g/ha, scale 0 to 100): 0; Plant response rating, Kochia ([5]; Rate 31 g/ha, scale 0 to 100): 20; Plant response rating, Nutsedge ([6]; Rate 31 g/ha, scale 0 to 100): 0; Plant response rating, Johnsongrass ([7]; Rate 31 g/ha, scale 0 to 100): 0; Plant response rating, Soybean ([8]; Rate 31 g/ha, scale 0 to 100): 0; Plant response rating, Crabgrass ([9]; Rate 31 g/ha, scale 0 to 100): 0; Plant response rating, Chickweed ([10]; Rate 31 g/ha, scale 0 to 100): 0; Plant response rating, Chickweed [10, 14]: 0
4 | CC(C)(C)c1ccn(C2SCN(c3cccc(OC(F)(F)F)c3)C2=O)n1 (stereo not drawn) [Compound 30] | 30 | 30 | 30 | 50 | 30 | 40 | 0 | 30 | 70 | 70 | 0 | 0 | 0 | 0 | 0 | 0 | 30 | 30 | 60 | 70 | Plant response rating, Cocklebur [1, 13]: 50; Plant response rating, Velvetleaf [2, 13]: 60; Plant response rating, Cupgrass, Woolly [3, 13]: 80; Plant response rating, Goosegrass [4, 13]: 40; Plant response rating, Kochia [5, 13]: 90; Plant response rating, Nutsedge [6, 13]: 0; Plant response rating, Johnsongrass [7, 13]: 90; Plant response rating, Soybean [8, 13]: 0; Plant response rating, Crabgrass [9, 13]: 90; Plant response rating, Chickweed [10, 14]: 50; Plant response rating, Chickweed [10, 13]: 90
5 | CCC(CC)c1ccn(C2SCN(c3cccc(C(F)(F)F)c3)C2=O)n1 (stereo not drawn) [Compound 25] | 60 | 60 | 40 | 50 | 40 | 60 | 20 | 60 | 70 | 70 | 0 | 0 | 20 | 50 | 20 | 30 | 30 | 70 | 70 | 80 | Plant response rating, Cocklebur [1, 13]: 60; Plant response rating, Velvetleaf [2, 13]: 50; Plant response rating, Cupgrass, Woolly [3, 13]: 70; Plant response rating, Goosegrass [4, 13]: 60; Plant response rating, Kochia [5, 13]: 70; Plant response rating, Nutsedge [6, 13]: 0; Plant response rating, Johnsongrass [7, 13]: 90; Plant response rating, Soybean [8, 13]: 30; Plant response rating, Crabgrass [9, 13]: 90; Plant response rating, Chickweed [10, 14]: 60; Plant response rating, Chickweed [10, 13]: 90
6 | CCC(CC)c1ccn(C2CCN(c3ccc(C)c(OC)c3)C2=O)n1 (stereo not drawn) [Compound 81] | 20 | 50 | 20 | 20 | 0 | 0 | 0 | 20 | 50 | 70 | 0 | 0 | 0 | 0 | 70 | 90 | 0 | 0 | 20 | 60 | Plant response rating, Cocklebur ([1]; Rate 31 g/ha, scale 0 to 100): 0; Plant response rating, Cocklebur ([1]; Rate 62 g/ha, scale 0 to 100): 0; Plant response rating, Velvetleaf ([2]; Rate 31 g/ha, scale 0 to 100): 20; Plant response rating, Velvetleaf ([2]; Rate 62 g/ha, scale 0 to 100): 20; Plant response rating, Cupgrass, Woolly ([3]; Rate 31 g/ha, scale 0 to 100): 0; Plant response rating, Cupgrass, Woolly ([3]; Rate 62 g/ha, scale 0 to 100): 0; Plant response rating, Goosegrass ([4]; Rate 31 g/ha, scale 0 to 100): 0; Plant response rating, Goosegrass ([4]; Rate 62 g/ha, scale 0 to 100): 0; Plant response rating, Kochia ([5]; Rate 31 g/ha, scale 0 to 100): 40; Plant response rating, Kochia ([5]; Rate 62 g/ha, scale 0 to 100): 50; Plant response rating, Nutsedge ([6]; Rate 31 g/ha, scale 0 to 100): 0; Plant response rating, Nutsedge ([6]; Rate 62 g/ha, scale 0 to 100): 0; Plant response rating, Johnsongrass ([7]; Rate 31 g/ha, scale 0 to 100): 0; Plant response rating, Johnsongrass ([7]; Rate 62 g/ha, scale 0 to 100): 0; Plant response rating, Soybean ([8]; Rate 31 g/ha, scale 0 to 100): 50; Plant response rating, Soybean ([8]; Rate 62 g/ha, scale 0 to 100): 60; Plant response rating, Crabgrass ([9]; Rate 31 g/ha, scale 0 to 100): 0; Plant response rating, Crabgrass ([9]; Rate 62 g/ha, scale 0 to 100): 0; Plant response rating, Chickweed ([10]; Rate 31 g/ha, scale 0 to 100): 0; Plant response rating, Chickweed ([10]; Rate 62 g/ha, scale 0 to 100): 20
